Blank lines part the entries; values can stand above or below the molecule they belong to.
Legend:
[1] = Acid dissociation constants of SOL; type: physicochemical
Excerpt: [drawing 4] and pharmaceutically acceptable salts, hydrates, solvates, esters, and prodrugs thereof. The following acid dissociation constants are observed for SOL, pKa1=9.44; pKa2=3.5. Such dissociation constants are illustrative of compounds that may be characterized as having low basicity.

[2] = Dynamic Precipitation Model (absorbance at 500 nm on infusion into blood surrogate); type: physicochemical
Description: Dynamic Precipitation Model. The dynamic precipitation apparatus is shown in FIG. 1, and is also described in Johnson et al., (2003). The apparatus includes a predetermined distance, illustratively a 15 cm distance, between the tip of the injection needle and the UV flow cell, and three main components to simulate blood flow and different infusion rates of drug. Illustratively, a Cole-Palmer-Masterflex® 7520-00 peristaltic pump is used to direct the flow of blood surrogate at 5 mL/min. Illustratively, a Harvard Apparatus Precision Syringe Pump 22 is used to infuse drug formulations into the system at various injection rates. Illustratively, a Cary UV-50 Bio Spectrophotometer with a 1.00 cm flow cell is used to monitor absorbance as a measure of precipitation in the formulation-blood surrogate system. Each sample is prepared by dissolving test compound and formulation agents into water or vehicle, and adjusting the pH with either 1 M HCl or 1 M NaOH, as appropriate to the indicated final concentration of test compound. Lactic, citric, and tartaric acid formulation agent stock solutions are made by dissolving the predetermined weight of solid or liquid into water and adjusting pH with either 1 M HCl or 1 M NaOH. The blood surrogate (Isotonic Sorensen's Phosphate Buffer, 0.067 M, pH 7.4) is pumped from a reservoir through Tygon® tubing (R-6306) fitted with 2 IV-set Y-injection sites that pass into the flow cell and terminate in a waste container. […]-35 flow meter, along with a timer and graduated cylinder, is used to measure the rate of surrogate blood flow through the system. Illustratively, flow is 5 mL/min. The test compound formulations are infused at different rates through the downstream second Y-injection site into the flow of the blood surrogate entering into the flow cell. A 0.001 M HCl solution is injected into the first Y-injection site following each infusion of test compound to flush the downstream tubing and flow cell. All injections are performed at 25° C. The spectrophotometer software (Cary UVWin) is set to read a constant absorbance, illustratively 500 nm, versus time. Samples are made with buffer and drug concentrations as described. After the flow rate is confirmed at 5 mL/min, the spectrophotometer is set to record absorbance at 500 nm for 5-10 minutes, and injections are performed at different rates as specified. To prevent any residual precipitation build up in the tubing or flow cell, a flush of pH 3 HCl is performed between injections. The flow cell is optionally visually inspected between runs for the presence of precipitation. Static precipitation measurements are also optionally performed by a two-fold serial dilution of test compound formulation in blood surrogate using a laser pointer as a Tyndall beam to determine the presence of particulates. […] An absorbance at or above 0.05 is considered to be the threshold level for assessing precipitation having phlebitic potential.

[3] = system: New Zealand White female rabbits; assay: Tolerance Evaluation, Multiple-Dose Rabbit Ear Vein Model Study; type: in vivo
Description: Tolerance Evaluation of Following Intravenous Infusion in the Rabbit. Multiple-Dose Rabbit Ear Vein Model Study. New Zealand White female rabbits weighing 2.5-3.2 kg are evaluated for pain, ear inflammation and phlebitis after receiving an intravenous infusion of test compound once daily for 5 days.
SOL is dissolved in a 0.5% lactic acid formulation at pH 4, and then into 0.45% saline at concentrations of 2 mg/mL or 3 mg/mL.
Four rabbits are dosed; one vehicle-dosed and one each at 2 mg/mL (rate of 3 mL/min), 3 mg/mL (rate of 3 mL/min) and 3 mg/mL (rate of 4 mL/min). All rabbits receive a dose volume of 5 mL and are dosed via intravenous infusion in the right marginal ear vein once daily for 5 days. Animals are observed during and post (30 minutes) each infusion and reactions recorded.

[4] = system: dog; assay: 28 day toxicology study, intravenous infusion, dog; type: in vivo; details: 28 days, tartrate-buffered solution of 1 mg/mL in 3% mannitol infused at approximately 1 mL/min
Excerpt: (§1) An intravenous infusion solution of SOL and related compounds suitable for treatment in a disease such as moderately severe to severe community acquired bacterial pneumonia (CABP) is needed. […] However, without being bound by theory, it is believed herein that infusion at higher concentrations and/or at higher rates of infusion, which are highly desirable in the clinical setting, may not be practical with current formulations due to the substantially lower solubility observed with SOL and related compounds compared to other macrolide, enolide, and ketolide compounds.

[5] = system: monkey; assay: 28 day toxicology study, intravenous infusion, monkey; type: in vivo; details: 28 days, tartrate-buffered solution of 1 mg/mL in 3% mannitol infused at approximately 1 mL/min
Excerpt: as §1

[6] = system: New Zealand White female rabbits; assay: Pain Tolerance Evaluation, Single Dose Rabbit Ear Vein Model Study; type: in vivo; details: single dose infusions in marginal ear vein, observed during and 30 minutes post infusion
Description: Pain Tolerance Evaluation Following Intravenous Infusion in Rabbit. Single Dose Rabbit Ear Vein Model Study. New Zealand White female rabbits weighing 2.5-3.2 kg are evaluated for pain, ear inflammation and phlebitis after intravenous infusion of test compound. Commercial azithromycin citrate is used as a positive control.
CEM-101 lyo (SOL (250.0 mg), mannitol, USP (250.0 mg), L(+)-tartaric acid, USP (29.0 mg), sodium hydroxide, NF (for pH adjustment to pH 4.2)) is reconstituted in a vehicle or formulation as described herein. The placebo is the same formulation without SOL. The reconstituted SOL or placebo is dissolved in an appropriate vehicles, such as 0.45% saline, 0.5% lactic acid at pH 4 in 0.45% saline, 0.5% lactic acid with 10 mM tartaric acid at pH 4 in 0.45% saline. CEM-101 lyo is dissolved in the appropriate vehicle at concentrations of 2 mg/mL or 3 mg/mL. The CEM-101 placebo formulation is dissolved in 0.45% saline. All rabbits are weighed to calculate dosing volumes.
Azithromycin lyophilized vials are commercially available azithromycin citrate for injection (ZITHROMAX IV) in lyophilized form in a 10-mL vial equivalent to 500 mg of azithromycin for intravenous administration. […]
Animals were observed during and post (30 minutes) each infusion, and reactions were scored according to a modified Draize Score and recorded. […]

pKa1 [1]: 9.44
pKa2 [1]: 3.5
Absorbance ([2]; 1 mg/mL in 0.45% Saline, 0.3 mL/min): BQL
Absorbance ([2]; 1 mg/mL in 0.45% Saline, 1.0 mL/min): BQL
Absorbance ([2]; 1 mg/mL in 0.45% Saline, 3.0 mL/min): BQL
Absorbance ([2]; 1 mg/mL in 0.45% Saline, 6.0 mL/min): about 0.1
injection rates at which precipitation is noted ([2]; 1 mg/mL in 5% Mannitol): greater than or equal to 3.0 mL/min
Absorbance ([2]; 1 mg/mL in 5% Mannitol, 0.3 mL/min): BQL
Absorbance ([2]; 1 mg/mL in 5% Mannitol, 1.0 mL/min): BQL
Absorbance ([2]; 1 mg/mL in 5% Mannitol, 3.0 mL/min): 0.01
Absorbance ([2]; 1 mg/mL in 5% Mannitol, 6.0 mL/min): about 0.05
precipitation ([2]; 2 mg/mL in 10 mM Tartaric Acid in 5% Mannitol, pH 4.2, 3 mL/min, infusion 1 minute): minimal precipitation
precipitation ([2]; 2 mg/mL in 20 mM Tartaric Acid in 5% Mannitol, pH 4.2, 3 mL/min, infusion 1 minute): minimal precipitation
precipitation ([2]; 2 mg/mL in 38.5 mM Tartaric Acid and 0.5% Monothioglycerol in 3% Mannitol, pH 4.0, 2, 3 or 4 mL/min, infusion 5 minutes): minimal precipitation
precipitation ([2]; 2 mg/mL in 38.5 mM Tartaric Acid in 5% Mannitol, pH 4.0, 2, 3 or 4 mL/min, infusion 5 minutes): minimal precipitation
Absorbance ([2]; 2 mg/mL in 0.45% Saline, 0.3 mL/min): BQL
Absorbance ([2]; 2 mg/mL in 0.45% Saline, 1.0 mL/min): BQL
Absorbance ([2]; 2 mg/mL in 0.45% Saline, 3.0 mL/min): about 0.02
Absorbance ([2]; 2 mg/mL in 0.45% Saline, 6.0 mL/min): about 0.1
injection rates at which precipitation is noted ([2]; 2 mg/mL in 5% Mannitol): greater than or equal to 1.0 mL/min
Absorbance ([2]; 2 mg/mL in 5% Mannitol, 0.3 mL/min): BQL
Absorbance ([2]; 2 mg/mL in 5% Mannitol, 1.0 mL/min): about 0.03
Absorbance ([2]; 2 mg/mL in 5% Mannitol, 3.0 mL/min): about 0.06
Absorbance ([2]; 2 mg/mL in 5% Mannitol, 6.0 mL/min): about 0.1
injection rates at which precipitation is noted ([2]; 3 mg/mL in 0.45% Saline): greater than or equal to 1.0 mL/min
Absorbance ([2]; 3 mg/mL in 0.45% Saline, 0.3 mL/min): BQL
Absorbance ([2]; 3 mg/mL in 0.45% Saline, 1.0 mL/min): about 0.02
Absorbance ([2]; 3 mg/mL in 0.45% Saline, 3.0 mL/min): about 0.1
Absorbance ([2]; 3 mg/mL in 0.45% Saline, 6.0 mL/min): about 0.3
injection rates at which precipitation is noted ([2]; 3 mg/mL in 5% Mannitol): greater than or equal to 1.0 mL/min
Absorbance ([2]; 3 mg/mL in 5% Mannitol, 0.3 mL/min): BQL
Absorbance ([2]; 3 mg/mL in 5% Mannitol, 1.0 mL/min): about 0.1
Absorbance ([2]; 3 mg/mL in 5% Mannitol, 3.0 mL/min): about 0.4
Absorbance ([2]; 3 mg/mL in 5% Mannitol, 6.0 mL/min): about 0.6
Absorbance ([2]; 3 mg/mL, 3 mL/min, pH 4.0, 0.9% NaCl): − ((−) = ≥0.05)
injection rates at which precipitation is noted ([2]; 2 or 1 mg/mL in 0.45% saline, 1.0 mL/min is borderline): greater than 1.0 mL/min
Molecule: CC[C@H]1OC(=O)[C@@](C)(F)C(=O)[C@H](C)[C@@H](O[C@@H]2O[C@H](C)C[C@H](N(C)C)[C@H]2O)[C@](C)(OC)C[C@@H](C)C(=O)[C@H](C)[C@H]2N(CCCCn3cc(-c4cccc(N)c4)nn3)C(=O)O[C@]12C [SOL, solithromycin]
effect of tartaric acid on observed precipitation ([2]; 3 mg/mL in 5 mM Tartaric Acid in 5% Mannitol pH 4.2 vs SOL 2 mg/mL in 5% Mannitol, 2 or 3 mL/min, infusion 2 minutes): substantially decreases the amount of observed precipitation
effect of citrate buffer on precipitation ([2]; 0.5, 1 and 5 mM citrate buffer (pH 4) in 0.45% saline, 2 mg/mL and 3 mg/mL): does not significantly reduce precipitation
effect of tartrate buffer on precipitation ([2]; 10 or 25 mM tartrate buffer (pH 4) in 0.45% saline, 2 mg/mL and 3 mg/mL): does not significantly reduce precipitation
observations, Days 4 and 5 ([3]; 2 mg/mL, rate of 3 mL/min, also seen in the vehicle-treated rabbit): mechanical irritation around the needle stick, without reaction distal to the needle
further observation ([3]; 3 mg/mL, rate of 4 mL/min): Head and ear twitching
observations, Day 3 until day 5 ([3]; 3 mg/mL, rates of 3 or 4 mL/min): vessel dilation and irritation around and past the needle stick
adverse effects, Days 1 and 2 ([3]; 0.5% lactic acid formulation pH 4 in 0.45% saline, 5 mL once daily for 5 days, any of the rabbits): No adverse effects
pain or other adverse events [4]: without evidence of pain or other adverse events
pain or other adverse events [5]: without evidence of pain or other adverse events

Absorbance ([2]; 2 mg/mL, 4 mL/min, 0.45% NaCl): ++++ ((++++) = BQL of <0.003)
precipitation ([2]; citrate buffered solution in 0.45% saline at 2 mg/mL and 4 mL/min): does not exhibit precipitation and BQL
Molecule: Azithromycin Citrate [Azitromycin citrate, reference compound]
reactions upon test article administration [6]: strong movement of ear, head and body with vocalization

Absorbance ([2]; 2 mg/mL, 3 mL/min, 0.9% NaCl): ++++ ((++++) = BQL of <0.003)
Molecule: CC[C@H]1OC(=O)[C@H](C)[C@@H](O[C@H]2C[C@@](C)(OC)[C@@H](O)[C@H](C)O2)[C@H](C)[C@@H](O[C@@H]2O[C@H](C)C[C@H](N(C)C)[C@H]2O)[C@](C)(O)C[C@@H](C)C(=O)[C@H](C)[C@@H](O)[C@]1(C)O [erythromycin-lactobionate, erythromycin lactobionate, reference compound]

— patent US10188674B2, “Parenteral formulations for administering macrolide antibiotics” (Cempra Pharmaceuticals, Inc., priority 2012, dated 2019)
